Measurements reported in ChEMBL document CHEMBL3507680, “University of Dundee, Gates Library screen for HepG2 cell viability”.

Experiment: Human HepG2 cell viability assay in 384 well format
Assay type: toxicity, cell-based
Design: dose 125 nL, time 70.5 hour; concentration not given beside the values
Details: HepG2 cells, read-out: Inhibition
With CC(C)N(C)Cc1cncc2c1CCN(C(=O)c1ccccc1F)C2 the cytotoxicity at 70.5 h was -1.95%.
c1ccc(-n2ncc(CNCC3CCCN3c3cccnn3)n2)cc1 (stereo not drawn) showed a cytotoxicity at 70.5 h of 5.2%.
In the case of CC(C)C(C)N(C(=O)c1cc2c([nH]c1=O)CCCC2=O)C1CC1 (stereo not drawn), the cytotoxicity at 70.5 h was -7.9%.
Compound CN(C)C[C@H]1OC[C@@H]2CCN(C(=O)NCc3cccc(F)c3)C[C@@H]21 has a cytotoxicity at 70.5 h of -5.72%.
O=C(c1ccno1)N1CCN2C(=O)N(Cc3ccc(F)cc3)C[C@H]2C1 showed a cytotoxicity at 70.5 h of -8.27%.
CSC(C)C(=O)N1CCC(Oc2cc(C)ccc2F)(C(=O)O)CC1 (stereo not drawn) gave a cytotoxicity at 70.5 h of -7.76%.
Work on COCCc1noc(CN2CCCCC2Cn2cccn2)n1 (stereo not drawn) yielded a cytotoxicity at 70.5 h of -11.6%.
For Cc1nc(-c2ccsc2)ccc1C(=O)N(C)CC(F)(F)F, the cytotoxicity at 70.5 h was -11.2%.
With O=C(c1cc(CC2(NCC3CCCCC3)COC2)no1)N1CCCCC1 the cytotoxicity at 70.5 h was -6.68%.
In the case of Cn1cc(CN(Cc2cccc(-n3cccn3)c2)C2CC2)cn1, the cytotoxicity at 70.5 h was 43.4%.
With Nc1nc2c(c(NC(=O)Nc3ccccc3)n1)CCCC2 the cytotoxicity at 70.5 h was 16.9%.
In the case of Fc1cccc(-n2cccn2)c1NCc1nnc(C2CC2)o1, the cytotoxicity at 70.5 h was -2.54%.
For Cc1nccn1CCC1CCCCN1C(=O)c1ccc2[nH]nnc2c1 (stereo not drawn), the cytotoxicity at 70.5 h was -1.82%.
CCN(CC)CCCNC(=O)C(C)n1cc(Br)cn1 (stereo not drawn) showed a cytotoxicity at 70.5 h of -1.37%.
O=C(NCCN1CCOCC1)N1CCN(c2ccccc2)CC1 gave a cytotoxicity at 70.5 h of -10.1%.
Work on Cc1nnc(NCCc2nc3ccc(F)cc3n2C)c(C#N)c1C yielded a cytotoxicity at 70.5 h of 1.4%.
Fc1ccccc1Oc1nccnc1C1CCCN(C2CCOCC2)C1 (stereo not drawn) gave a cytotoxicity at 70.5 h of -9%.
With O=C(c1cccnc1)N1CCN(c2ccnc3ccsc23)CC1 the cytotoxicity at 70.5 h was -10.7%.
Work on c1coc(CN2CCO[C@H]3[C@@H](OCC4CC4)CC[C@@H]32)c1 yielded a cytotoxicity at 70.5 h of -7.18%.
CN(C)Cc1csc(-c2nccn2Cc2ccsc2)c1 gave a cytotoxicity at 70.5 h of 3.09%.
Compound Cc1nnc(N2CCOC(C)(C(=O)N(C)C)C2)c2ccccc12 (stereo not drawn) has a cytotoxicity at 70.5 h of -8.96%.
Compound Cc1cccc(-n2nc(CC(C)C)nc2CS(C)(=O)=O)c1 has a cytotoxicity at 70.5 h of -2.84%.
Compound CSc1ccc(NCc2csc(C)n2)cc1F has a cytotoxicity at 70.5 h of -0.888%.
Compound Cc1ccc(C(=O)N2CCN(CCc3cccs3)CC2)c(=O)[nH]1 has a cytotoxicity at 70.5 h of -8.54%.
Work on Cn1ccc(CN2CCC3(CC2)CC(Nc2ccccn2)CO3)n1 (stereo not drawn) yielded a cytotoxicity at 70.5 h of -2.31%.
With CCCc1noc(CN(C)Cc2ccc3c(c2)OCO3)n1 the cytotoxicity at 70.5 h was 17.8%.
COc1cc(CCC(=O)NC(C)C(=O)O)ccc1OCC(F)(F)F (stereo not drawn) showed a cytotoxicity at 70.5 h of -13%.
Compound Cc1cc(C(=O)CN2CCN(c3nccs3)CC2)c(C)n1C1CC1 has a cytotoxicity at 70.5 h of -10.5%.
Compound CCN1CC2(CC1=O)CN(C(=O)NC(C)C)CCN(C(=O)C(C)C)C2 (stereo not drawn) has a cytotoxicity at 70.5 h of -3.19%.
Work on CNc1snc(C)c1C(=O)N1CCCC(n2ccnc2)C1 (stereo not drawn) yielded a cytotoxicity at 70.5 h of -9.44%.
For Cc1ccc(NC(=O)CNc2ccccc2C(N)=O)c(C)c1, the cytotoxicity at 70.5 h was 2.06%.
Cc1csc(NC(=O)CN(C)CC2CCCN2c2cccnn2)n1 (stereo not drawn) gave a cytotoxicity at 70.5 h of 3.61%.
Compound CCC(O)CN1CCN(C(=O)c2sccc2C2CC2)CC1 (stereo not drawn) has a cytotoxicity at 70.5 h of -2.13%.
Compound Cc1ncc(C(=O)NCCNc2ncccn2)s1 has a cytotoxicity at 70.5 h of -2.18%.
For Cc1cccc(-n2c(C)cc(C(=O)NS(C)(=O)=O)c2C)c1, the cytotoxicity at 70.5 h was -14.6%.
Compound CC1(C)Cc2c(cnn2-c2cccc(F)c2)C(NC2CCSCC2)C1 (stereo not drawn) has a cytotoxicity at 70.5 h of 9.46%.
CN(C)C(=O)c1cc(S(=O)(=O)N2CCCC2Cn2ccnc2)cn1C (stereo not drawn) showed a cytotoxicity at 70.5 h of 2.99%.
Work on NC(=O)N1CCCN(C2CCc3ccc(F)cc32)CC1 (stereo not drawn) yielded a cytotoxicity at 70.5 h of -1.61%.
Work on COc1ccccc1Oc1ncccc1CNC(=O)CN1CCCC1=O yielded a cytotoxicity at 70.5 h of -4.31%.
Work on CSCC[C@@H](CO)Nc1ccc(-c2nc(C3CC3)no2)cn1 yielded a cytotoxicity at 70.5 h of -3.18%.
Work on Cc1cc(C(C)(O)CNC(=O)OC(C)(C)C)c(C)o1 (stereo not drawn) yielded a cytotoxicity at 70.5 h of 0.912%.
For Cc1cc(C2CCC2)nc(N2CCC3(CCNC(=O)CC3)CC2)n1, the cytotoxicity at 70.5 h was -13%.
O=C(NCc1ccco1)[C@@]12CCO[C@@H]1CCN(Cc1ccccn1)C2 gave a cytotoxicity at 70.5 h of -3.48%.
COCC(C)N(C)C(=O)NC1CCN(S(C)(=O)=O)CC1 (stereo not drawn) gave a cytotoxicity at 70.5 h of -6.45%.
Compound O=C(CC1CC1)N1CCC2(CC1)CC(Oc1ccccc1)CO2 (stereo not drawn) has a cytotoxicity at 70.5 h of -4.92%.
For CC(C)(C)c1noc(CCCC(=O)N2CCNC(=O)CC2)n1, the cytotoxicity at 70.5 h was -6.5%.
Compound CCn1ncc(C(=O)NCCc2nc(-c3cccnc3)n[nH]2)c1C has a cytotoxicity at 70.5 h of -3.1%.
COCCC(=O)N1CCN(CCN(C)C)c2ncccc2C1 gave a cytotoxicity at 70.5 h of -6.14%.
For Cc1cccc(Nc2ccc(C3CCN(Cc4ncc[nH]4)CC3)nc2)n1, the cytotoxicity at 70.5 h was 0.422%.
In the case of Cc1csc(N2CCCN(C(=O)Cc3cccs3)CC2)n1, the cytotoxicity at 70.5 h was -5.57%.
Cc1ccc(N2CCCC(NCC3=Cc4ccccc4OC3)C2)nn1 (stereo not drawn) showed a cytotoxicity at 70.5 h of -5.84%.
For CC(Cn1cccn1)NC(=O)Nc1ccc(N(C)C)nc1 (stereo not drawn), the cytotoxicity at 70.5 h was 19.1%.
For Cc1ccccc1C(C(=O)NCCn1cccc1)N(C)C (stereo not drawn), the cytotoxicity at 70.5 h was -9.04%.
Compound COCCc1noc(-c2cn(Cc3ccccc3C)nn2)n1 has a cytotoxicity at 70.5 h of -4.41%.
With Clc1cccc(C(CNc2ncccn2)N2CCOCC2)c1 (stereo not drawn) the cytotoxicity at 70.5 h was -5.68%.
Compound O=C(CC1CCCC1)NCCn1ccc(-c2ccncc2)n1 has a cytotoxicity at 70.5 h of 9.19%.
Work on COC(=O)C1CCCN1Cc1ccco1 (stereo not drawn) yielded a cytotoxicity at 70.5 h of -8.41%.
O=C(CCN1CCOC1=O)N(Cc1ccncc1)CC1CCCO1 (stereo not drawn) gave a cytotoxicity at 70.5 h of 4.43%.
